This is an account of results in patent publication US12391701B2, “Chromene-based compounds, methods and uses thereof” (University of Minho, priority 2019, dated 2025).

The structures appear in SMILES notation.

Format in all cases: cell-based
For one assay, the system named is glioma cell line GAMG. In words: Cell viability MTS assay, GAMG. To be noted: Homo sapiens, 72 hours. The protocol:
(§1) In an embodiment, the antiproliferative activity of compounds MC408, MC409, MC421 and MC406 was further determined against glioma cell lines (U87, GAMG and GL18) and acute leukemia cell lines (HL-60, KG-1 and Jurkat). This was done in order to evaluate if the compounds presented an equally interesting anticancer profile in other cancer cell models. Cell viability was determined using the MTS assay, after exposure of the cells to the respective compounds for 72 hours at appropriate concentration ranges to determine the respective IC50 values.
In an embodiment, three human breast cancer cell lines Hs578T, MDA-MB-468 and MCF-7, and a normal breast cell line MCF-10A, were obtained from ATCC (American Type Culture Collection). The cancer cell lines were cultured in Dulbecco's modified Eagle medium, 4.5 g/l glucose (DMEM, Gibco) supplemented with 10% heating inactivated Fetal Bovine Serum (FBS, Gibco) and 1% antibiotic solution (Penicillin-Streptomycin, Gibco). The normal cell line was cultured in Dulbecco's Modified Eagle Medium: Nutrient Mixture F-12 (DMEM/F12, Gibco) supplemented with 5% heating inactivated FBS (Gibco), 1% antibiotic solution (Penicillin-Streptomycin, Gibco), 1% steroid hormone (Hydrocortisone, Sigma-Aldrich), 0.1% peptide hormone (Insulin, Sigma-Aldrich) and 0.01% protein complex (Cholera Toxin, Gibco). Two distinct human acute myeloid leukemia (AML) cell lines, HL-60 (FAB M2) and KG-1 (erythroleukemia-FAB M6), and one human lymphoblastic leukemia (ALL) cell line, Jurkat (T cell type), were also used. These three cell lines were obtained from German Collection of Microorganisms and Cell cultures (DMSZ®, Deutsche Sammlung von Mikroorganismen and Zellkulturen in German). Cells were cultured in RPMI 1640 medium (Biochrom®-Merck Millipore) supplemented with 10% heating inactivated FBS (Biochrom®-Merck Millipore) and 1% antibiotic/antimitotic mixture (Invitrogen®). Three human glioblastoma (GBM) cell line models, two established and commercially available cell lines (U87MG and GAMG, kind gift from Rui M. Reis) and one primary GBM culture (GLIB) were also used. […]

Assay [1] concerns cediranib-resistant Caki-2 cell line. In words: Cell viability, cediranib-resistant Caki-2. To be noted: for IC50: Homo sapiens, CAKI-2. The protocol: (§2) In an embodiment, the antiproliferative activity of compounds MC421, MC409, MC408, MC350, MC416, MC410, MC411, MC415 and MC413 was further determined against drug-resistant renal carcinoma cell lines.
(§3) In an embodiment, cell viability assays were performed. MCF-7, Hs578T and MCF-10A cells were plated in triplicate in 96-multiwell culture plates, at 3000 cells per mL, or 5000 cells per mL for MDA-MB-468 (100 μL/well). The cells were then allowed to adhere in complete medium, over a period of 18-20 hours. Cells were subsequently treated with 7 different concentrations (from 0.1 to 40 μM or 5 to 60 μM) of compounds or control in fresh medium. HL-60, KG-1 and Jurkat cell lines were plated in 96-multiwell culture plates at 50.000 cells/100 μL per well and treated with different concentrations (from 0.001 to 2 μM) of the compounds described (or control). Cells were plated, in triplicate, at an initial density of 2000 cells/well for GAMG, 4000 cells/well for GL18 and 6000 cells/well for U87MG, in 96-well plates, and allowed to adhere for 18-20 hours. Cells were then treated with different concentrations of the compounds (0.005 to 100 μM) or with control. A498 and 786-O cells were plated at 2000 cells per mL, Caki-2 cells were plated at 3000 cells per mL and HK2 cells were plated at 2000 cells per mL in triplicate, in 96-multiwell culture plates (100 μL/well), and allowed to adhere over a period of 18-20 hours in complete medium. The cells were then treated with 7 different concentrations (from 0.1 to 40 μM or 5 to 60 μM) of compounds or control in fresh medium. After 72 h of incubation, the MTS (Promega) reduction assay was performed according to manufacturer's instructions to indirectly assess the percentage of viable cells through metabolic cell viability. After 1-2 hours of incubation with MTS in a humidified atmosphere at 37° C. and 5% CO2, absorbance was measured at 490 nm. For RCC cell lines, sulforhodamine B assay was used according to manufacturer's instructions. The data was log-transformed and the concentration of each compound that decreased the number of viable cells to 50% (IC50) relative to control was calculated using the GraphPad Prism 6 software.

The subject of assay [2] is TNBC cell line MDA-MB-231. Nature of the assay: Cell viability assay, MDA-MB-231. Particulars: Homo sapiens.
A further assay concerns glioma cell line GL18. In words: Cell viability MTS assay, GL18. Particulars: Homo sapiens, 72 hours. The protocol:
as §1
(§4) In an embodiment, three human breast cancer cell lines Hs578T, MDA-MB-468 and MCF-7, and a normal breast cell line MCF-10A, were obtained from ATCC (American Type Culture Collection). The cancer cell lines were cultured in Dulbecco's modified Eagle medium, 4.5 g/l glucose (DMEM, Gibco) supplemented with 10% heating inactivated Fetal Bovine Serum (FBS, Gibco) and 1% antibiotic solution (Penicillin-Streptomycin, Gibco). The normal cell line was cultured in Dulbecco's Modified Eagle Medium: Nutrient Mixture F-12 (DMEM/F12, Gibco) supplemented with 5% heating inactivated FBS (Gibco), 1% antibiotic solution (Penicillin-Streptomycin, Gibco), 1% steroid hormone (Hydrocortisone, Sigma-Aldrich), 0.1% peptide hormone (Insulin, Sigma-Aldrich) and 0.01% protein complex (Cholera Toxin, Gibco). Two distinct human acute myeloid leukemia (AML) cell lines, HL-60 (FAB M2) and KG-1 (erythroleukemia-FAB M6), and one human lymphoblastic leukemia (ALL) cell line, Jurkat (T cell type), were also used. These three cell lines were obtained from German Collection of Microorganisms and Cell cultures (DMSZ®, Deutsche Sammlung von Mikroorganismen and Zellkulturen in German). Cells were cultured in RPMI 1640 medium (Biochrom®-Merck Millipore) supplemented with 10% heating inactivated FBS (Biochrom®-Merck Millipore) and 1% antibiotic/antimitotic mixture (Invitrogen®). Three human glioblastoma (GBM) cell line models, two established and commercially available cell lines (U87MG and GAMG, kind gift from Rui M. Reis) and one primary GBM culture (GLIB) were also used. GBM cells were cultures in DMEM (Biochrom-Merck Millipore), all supplemented with 10% FBS. The Renal cell carcinoma cell lines A498, 786-O, Caki-2 and HK2 were obtained from ATCC. The cancer cell line A498 was cultured in MEM medium (Biochrom®-Merck Millipore), 786-O was cultured in RPMI 1640 medium (Biochrom®-Merck Millipore), Caki-2 was cultured in Mc Coys medium (Biochrom®-Merck Millipore) and HK2 was cultured in RPMI 1640 medium (Biochrom®-Merck Millipore). All the media were supplemented with 10% heat inactivated FBS (Biochrom®-Merck Millipore) and 1% antibiotic/antimitotic mixture (Invitrogen®). All cells were grown in a humidified incubator at 37° C. and 5% CO2. […]
In general terms: Tetrazolium assays rely on reduction of a dye to a coloured formazan, in cell work by metabolically active cells.

Assay [3] relates to rapamycin-resistant A498 cell line. Nature of the assay: Cell viability, rapamycin-resistant A498. Particulars: for IC50: Homo sapiens, A498. The protocol:
as §2, §3

Assay [4] concerns acute leukemia cell line KG-1. Nature of the assay: Cell viability MTS assay, KG-1. To be noted: Homo sapiens, 72 hours. How it is done:
as §1, §4

Assay [5] concerns A498 rapamycin-resistant cells. In words: BrdU proliferation assay, A498 rapamycin-resistant. Particulars: 24 and 48 hours, IC50 and ½IC50.

Take `COc1cccc2c1Oc1nc(-c3ccc(F)cc3)[nH]c1C2` [MC409, 2-(4-fluorophenyl)-5-methoxy-3,9-dihydrochromeno[2,3-d]imidazoles]: the IC50 in the assay with glioma cell line GAMG turned out to be 0.43 µM; in assay [1], 0.33 µM; in assay [2], 2700 nM; in the assay with glioma cell line GL18, 0.6 µM; in assay [3], 0.51 µM; in assay [4] it was 1.02 µM. Moreover, the “Selectivity Index (vs HK2) Caki-2 Resistant” value in assay [1] turned out to be 9.56. In assay [3], the “Selectivity Index (vs HK2) A498 Resistant” value amounted to 5.84.

As for `COc1ccc(-c2nc3c([nH]2)Cc2cccc(OC)c2O3)c(Br)c1O` [MC416, 2-bromo-6-methoxy-3-(5-methoxy-3,9-dihydrochromeno[2,3-]imidazol-2-yl)phenol], in assay [1], the “Selectivity Index (vs HK2) Caki-2 Resistant” value was 1.97 and the IC50 was determined as 1.59 µM.

As to `COc1cccc2c1Oc1nc(-c3ccc(Br)cc3)[nH]c1C2` [MC408, 2-(4-bromophenyl)-5-methoxy-3,9-dihydrochromeno[2,3-d]imidazoles], in assay [5], the “effect on cell proliferation (BrdU)” value is recorded as “significant decrease in cell proliferation”. The “Selectivity Index (vs HK2) Caki-2 Resistant” value in assay [1] turned out to be 123.79. Also, the IC50 in assay [1] came to 0.028 µM; in assay [2], 2560 nM; in the assay on glioma cell line GL18, 1.6 µM; in assay [3] it was 1.07 µM; in assay [4] it was 0.64 µM. Also, in assay [3], the “Selectivity Index (vs HK2) A498 Resistant” value is reported as 2.26.

Regarding `CCOc1ccc(-c2nc3c([nH]2)Cc2cccc(OC)c2O3)cc1` [MC415, 2-(4-ethoxyphenyl)-5-methoxy-3,9-dihydrochromeno[2,3-d]imidazoles], in assay [1], the “Selectivity Index (vs HK2) Caki-2 Resistant” value is given as 64.5 and half-maximal inhibition (IC50) was put at 0.08 µM. This compound also showed a half-inhibitory concentration (IC50) in assay [2] of 1420 nM. Further, in assay [3], the “Selectivity Index (vs HK2) A498 Resistant” value turned out to be 8.03 and the IC50 was found to be 0.58 µM.

Take `COc1cccc2c1Oc1nc(-c3ccc(Br)cc3)[nH]c1C2C1c2cccc(OC)c2Oc2nc(-c3ccc(Br)cc3)[nH]c21` (stereo not shown) [MC421, 2,2′-bis(4-bromophenyl)-5,5′-dimethoxy-1,1,9,9′-tetrahydro-9,9′-bichromeno[2,3-]imidazoles]: in assay [5], the “effect on cell proliferation (BrdU)” value was “significant decrease in cell proliferation”. Further, the half-inhibitory concentration (IC50) in the assay with glioma cell line GAMG was found to be 0.079 µM; in assay [1] it was 0.02 µM; in assay [2], 2960 nM; with glioma cell line GL18, 0.2 µM; in assay [3], 0.16 µM; in assay [4], 0.93 µM. For the same compound, the “Selectivity Index (vs HK2) Caki-2 Resistant” value in assay [1] was found to be 123.50. For the same compound, the “Selectivity Index (vs HK2) A498 Resistant” value in assay [3] amounted to 14.56.

Turning to `COc1cccc2c1Oc1nc(-c3ccccc3F)[nH]c1C2` [MC407, 2-(2-fluorophenyl)-5-methoxy-3,9-dihydrochromeno[2,3-d]imidazoles], the midpoint of inhibition in assay [2], the IC50, lay at 1650 nM.

With `COc1cccc2c1Oc1nc(-c3ccc(F)cc3)[nH]c1C2C1c2cccc(OC)c2Oc2nc(-c3ccc(F)cc3)[nH]c21` (stereo not shown) [MC406, 2,2′-bis(4-fluorophenyl)-5,5′-dimethoxy-1,1,9,9′-tetrahydro-9,9′-bichromeno[2,3-]imidazoles], the IC50 amounted to 0.22 µM in the assay on glioma cell line GAMG, 1290 nM in assay [2], 0.3 µM in the assay on glioma cell line GL18 and 1.01 µM in assay [4].

As for `COc1cccc2c1Oc1nc(-c3ccc(O)cc3)[nH]c1C2` [MC413, 4-(5-methoxy-3,9-dihydrochromeno[2,3-d]imidazol-2-yl)phenol], in assay [5], the “effect on cell proliferation (BrdU)” value is on record as “significant decrease in cell proliferation”. In addition, in assay [1], the “Selectivity Index (vs HK2) Caki-2 Resistant” value amounted to 29.6 and the IC50 is 0.335 µM. Besides, 630 nM corresponded to half-maximal inhibition in assay [2] (IC50). In assay [3], the “Selectivity Index (vs HK2) A498 Resistant” value is 12.32 and 0.77 µM corresponded to half-maximal inhibition (IC50).

Regarding `COc1ccccc1-c1nc2c([nH]1)Cc1cccc(OC)c1O2` [MC411, 5-methoxy-2-(2-methoxyphenyl)-3,9-dihydrochromeno[2,3-]imidazoles], in assay [1], the “Selectivity Index (vs HK2) Caki-2 Resistant” value was 1.92 and half-maximal inhibition (IC50) was put at 1.62 µM. This compound returned an IC50 in assay [2] of 1780 nM.

For `COc1cccc2c1Oc1nc(-c3cc(F)cc(F)c3O)[nH]c1C2` [MC410, 2,4-difluoro-6-(5-methoxy-3,9-dihydrochromeno[2,3-d]imidazol-2-yl)phenol], in assay [1], the “Selectivity Index (vs HK2) Caki-2 Resistant” value is 2.60 and the IC50 amounted to 6.41 µM. In assay [2], this compound had an IC50 of more than 30000 nM.

Compound `COc1cccc2c1Oc1nc(-c3ccccc3F)[nH]c1C2C1c2cccc(OC)c2Oc2nc(-c3ccccc3F)[nH]c21` (stereo not shown) [MC369, 2,2′-bis(2-fluorophenyl)-5,5′-dimethoxy-1,1,9,9′-tetrahydro-9,9′-bichromeno[2,3-]imidazoles] showed an IC50 in assay [2] of 2520 nM.

In the case of `COc1cccc2c1Oc1nc(-c3ccccc3)[nH]c1C2` [MC350, 5-methoxy-2-phenyl-3,9-dihydrochromeno[2,3-d]imidazoles], in assay [1], the “Selectivity Index (vs HK2) Caki-2 Resistant” value was 32.28. For the same compound, the figures for the IC50 in assay [1], in assay [2] and in assay [3] were 0.646 µM, 2520 nM and 1.62 µM, respectively. Also, the “Selectivity Index (vs HK2) A498 Resistant” value in assay [3] came out at 12.27.

One may read the IC50 as the concentration that gives 50% inhibition.
